Test results as given in patent US20240041042A1, “1-(PYRIDYL)-5-AZINYLPYRAZOLE DERIVATIVES, AND THEIR USE FOR CONTROL OF UNDESIRED PLANT GROWTH” (Bayer Aktiengesellschaft, priority 2020, published 2024).
Like-named read-outs stand apart in the source and are kept apart here.

Legend:
Type in all cases: in vivo
[1] = system: Amaranthus retroflexus (AMARE); assay: Pre-emergence herbicidal action against AMARE; conditions: visual scoring after about 3 weeks vs untreated controls
Summary of the method: (§1)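 Dosages of 320 g/ha or less; pre-emergence; WP or EC in aqueous spray, 0.5% additive, 600 l/ha; greenhouse; visual % effect after ~3 wk relative to control pots.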

[2] = system: Echinochloa crus-galli (ECHCG); assay: Pre-emergence herbicidal action against ECHCG; conditions: dosage 320 g/ha
Summary of the method: as §1

[3] = system: Lolium rigidum (LOLRI); assay: Pre-emergence herbicidal action against LOLRI; conditions: dosage 320 g/ha
Summary of the method: as §1

[4] = system: Matricaria inodora (MATIN); assay: Pre-emergence herbicidal action against MATIN; conditions: dosage 320 g/ha
Summary of the method: as §1

[5] = system: Pharbitis purpurea (PHBPU); assay: Pre-emergence herbicidal action against PHBPU; conditions: dosage 320 g/ha
Summary of the method: as §1

[6] = system: Setaria viridis (SETVI); assay: Pre-emergence herbicidal action against SETVI; conditions: dosage 320 g/ha
Summary of the method: as §1

[7] = system: Viola tricolor (VIOTR); assay: Pre-emergence herbicidal action against VIOTR
Summary of the method: as §1

[8] = system: Oryza sativa (ORYSA); conditions: pre-emergence, 80 g/ha, crop plant compatibility, in comparison to untreated controls
Summary of the method: (§2)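 Crop injury rated visually in percent against untreated plants roughly 3 weeks after treatment (0% no effect, 100% plants dead). Compounds, as WP or EC with 0.5% additive in 600 l/ha water, were applied to the covering soil right after sowing; greenhouse growth. Suffixes a, b, c denote different dosages.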

[9] = system: Zea mays (ZEAMX); conditions: pre-emergence, crop plant compatibility, in comparison to untreated controls
Summary of the method: as §2

[10] = system: Alopecurus myosuroides (ALOMY); assay: Post-emergence herbicidal action against ALOMY; conditions: visual rating about 3 weeks after treatment vs untreated controls (100% = plants have died, 0% = like control plants)
Summary of the method: (§3)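 Values are percent visual activity (0% like control, 100% plants dead) after about 3 weeks in the greenhouse. Treatment: post-emergence spray at one-leaf stage, 600 l/ha spray volume, 0.5% additive, doses 320 g/ha or lower.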

[11] = system: Amaranthus retroflexus (AMARE); assay: Post-emergence herbicidal action against AMARE
Summary of the method: as §3

[12] = system: Avena fatua (AVEFA); assay: Post-emergence herbicidal action against AVEFA; conditions: visual rating about 3 weeks after treatment
Summary of the method: as §3

[13] = system: Echinochloa crus-galli (ECHCG); assay: Post-emergence herbicidal action against ECHCG
Summary of the method: as §3

[14] = system: Matricaria inodora (MATIN); assay: Post-emergence herbicidal action against MATIN; conditions: dosage 320 g/ha
Summary of the method: as §3

[15] = system: Pharbitis purpurea (PHBPU); assay: Post-emergence herbicidal action against PHBPU
Summary of the method: as §3

[16] = system: Polygonum convolvulus (POLCO); assay: Post-emergence herbicidal action against POLCO; conditions: dosage 320 g/ha
Summary of the method: as §3

[17] = system: Setaria viridis (SETVI); assay: Post-emergence herbicidal action against SETVI
Summary of the method: as §3

[18] = system: Verconica persica (VERPE); assay: Post-emergence herbicidal action against VERPE
Summary of the method: as §3

[19] = system: Oryza sativa (ORYSA); conditions: crop plant compatibility
Summary of the method: (§4)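 Foliar application at the one-leaf stage: WP/EC formulation, 0.5% additive, 600 l/ha water. Greenhouse-grown in sandy loam. Endpoint is visual % injury relative to untreated controls at about 3 weeks.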

[20] = system: Alopecurus myosuroides (ALOMY); assay: Pre-emergence herbicidal action against ALOMY; conditions: 320 g/ha; scored visually after about 3 weeks; 100% = plants have died
Summary of the method: as §1

[21] = system: Avena fatua (AVEFA); assay: Pre-emergence herbicidal action against AVEFA; conditions: 320 g/ha, visual scoring after about 3 weeks vs untreated controls
Summary of the method: as §1

[22] = system: Polygonum convolvulus (POLCO); assay: Pre-emergence herbicidal action against POLCO
Summary of the method: as §1

[23] = system: Verconica persica (VERPE); assay: Pre-emergence herbicidal action against VERPE; conditions: dosage 320 g/ha
Summary of the method: as §1

[24] = system: Abutilon theophrasti (ABUTH); assay: Post-emergence herbicidal action against ABUTH; conditions: visual rating about 3 weeks after treatment vs untreated controls (100% = plants have died, 0% = like control plants)
Summary of the method: as §3

[25] = system: Lolium rigidum (LOLRI); assay: Post-emergence herbicidal action against LOLRI; conditions: dosage 320 g/ha
Summary of the method: as §3

[26] = system: Viola tricolor (VIOTR); assay: Post-emergence herbicidal action against VIOTR
Summary of the method: as §3

[27] = system: Zea mays (ZEAMX); conditions: for Post-emergence action against ZEAMX in %: crop plant compatibility, 80 g/ha, effect vs untreated controls
Summary of the method: as §4

[28] = 80 g/ha, visual rating about 3 weeks after treatment vs untreated controls (100% = plants have died, 0% = like control plants)
[29] = 320 g/ha, visual rating about 3 weeks after treatment
[30] = 80 g/ha, effect in comparison to untreated controls

Pre-emergence action against ORYSA in % [8] [%]	Pre-emergence action against ZEAMX in % ([9]; 80 g/ha) [%]	Post-emergence action against ORYSA in % [19, 30] [%]	Compound	Pre-emergence action against AMARE in % ([1]; 320 g/ha) [%]	Pre-emergence action against ECHCG in % [2] [%]	Pre-emergence action against LOLRI in % [3] [%]	Pre-emergence action against MATIN in % [4] [%]	Pre-emergence action against PHBPU in % [5] [%]	Pre-emergence action against SETVI in % [6] [%]	Pre-emergence action against VIOTR in % ([7]; 320 g/ha, Viola tricolor) [%]	Pre-emergence action against VIOTR in % ([7]; dosage 80 g/ha) [%]	Post-emergence action against ALOMY in % ([10]; 320 g/ha) [%]	Post-emergence action against AMARE in % [11, 28] [%]	Post-emergence action against AMARE in % [11, 29] [%]	Post-emergence action against AVEFA in % ([12]; 320 g/ha) [%]	Post-emergence action against ECHCG in % ([13]; dosage 80 g/ha) [%]	Post-emergence action against ECHCG in % ([13]; dosage 320 g/ha) [%]	Post-emergence action against MATIN in % [14] [%]	Post-emergence action against PHBPU in % ([15]; dosage 320 g/ha) [%]	Post-emergence action against POLCO in % [16] [%]	other results
0	0	0	CCOC(=O)CSc1nn(-c2ccccn2)c(-c2cncc(F)c2)c1C1CC1 [Example I-156]	100	90	80	80	80	90	90	80	80	80	90	90	80	80	80	90	80	Pre-emergence action against ZEAMX in % ([9]; 320 g/ha): 20%; Post-emergence action against SETVI in % ([17]; dosage 320 g/ha): 80%; Post-emergence action against VERPE in % ([18]; 320 g/ha, VERPE): 80%
0	10	0	COC(=O)COc1nn(-c2ncccc2Cl)c(-c2ccc(F)nc2)c1Br [Example I-28]	100	100	100	90	–	100	100	100	100	90	90	100	80	90	80	80	80	Pre-emergence action against ALOMY [20]: 100%; Pre-emergence action against AMARE in % ([1]; 80 g/ha): 90%; Pre-emergence action against AVEFA in % [21]: 100%; Pre-emergence action against POLCO in % ([22]; dosage 80 g/ha): 80%; Pre-emergence action against POLCO in % ([22]; dosage 320 g/ha): 90%; Pre-emergence action against VERPE in % [23]: 100%; Post-emergence action against ABUTH in % ([24]; 80 g/ha): 80%; Post-emergence action against ABUTH in % ([24]; 320 g/ha): 90%; Post-emergence action against ALOMY in % ([10]; 80 g/ha): 100%; Post-emergence action against AVEFA in % ([12]; 80 g/ha): 100%; Post-emergence action against LOLRI in % [25]: 90%; Post-emergence action against PHBPU in % ([15]; dosage 80 g/ha): 80%; Post-emergence action against SETVI in % ([17]; dosage 80 g/ha): 80%; Post-emergence action against SETVI in % ([17]; dosage 320 g/ha): 90%; Post-emergence action against VERPE in % ([18]; 320 g/ha, VERPE): 80%; Post-emergence action against VIOTR in % ([26]; 80 g/ha): 80%; Post-emergence action against VIOTR in % ([26]; 320 g/ha): 80%; Post-emergence action against ZEAMX in % [27]: 0%
10	10	10	CCOC(=O)COc1nn(-c2ncccc2Cl)c(-c2ccc(F)nc2)c1Br [Example I-23]	100	100	100	90	90	100	100	90	–	–	–	–	80	–	–	–	–	Pre-emergence action against ALOMY [20]: 100%; Pre-emergence action against AMARE in % ([1]; 80 g/ha): 90%; Pre-emergence action against AVEFA in % [21]: 90%; Pre-emergence action against POLCO in % ([22]; dosage 320 g/ha): 90%; Pre-emergence action against VERPE in % [23]: 90%; Post-emergence action against ALOMY in % ([10]; 80 g/ha): 90%; Post-emergence action against AVEFA in % ([12]; 80 g/ha): 90%; Post-emergence action against VERPE in % ([18]; dosage 80 g/ha): 80%; Post-emergence action against ORYSA in % ([19]; 20 g/ha, effect vs untreated controls): 0%; Post-emergence action against ZEAMX in % (crop plant compatibility) ([27]; 20 g/ha, ZEAMX, effect in comparison to untreated controls): 0%; Post-emergence action against ZEAMX in % [27]: 10%
